Test system: A431 xenografts
Assay: s.c. xenograft therapy study
Format: in vivo, nude mice
Conditions: preventative model; 0.1 mg mAb806; 400 μg AG1478
Experimental: Tumor cells (3×10^6) in […] of PBS were inoculated subcutaneously into both flanks of 4-6 week old female nude mice (Animal Research Centre, Western Australia, Australia). […] Treatment was continued for a total of 6 doses, 3 times per week for 2 weeks. In the established model, treatment was started when tumors had reached a mean volume of 65±6.42 mm^3 (U87MG.Δ2-7), 84±9.07 mm3 (U87MG), 73±7.5 mm^3 (U87MG.wtEGFR) or 201±19.09 mm^3 (A431 tumors). Tumor volume in mm^3 was determined using the formula (length×width)/2, where length was the longest axis and width the measurement at right angles to the length (Clark et al. (2000) Therapeutic efficacy of anti-Lewis (y) humanized 3S 193 radioimmunotherapy in a breast cancer model: enhanced activity when combined with Taxol chemotherapy. Clin. Cancer Res. 6, 3621-3628). Data was expressed as mean tumor volume±S.E. for each treatment group. Statistical analysis was performed at given time points using Student's t-test. […]
To establish xenografts, mice were injected subcutaneously into the right and left inguinal mammary line with 1×10^6 A431 adenocarcinoma cells or 1×10^6 U87MG.de2-7 glioma cells in 100 μl of PBS. Tumor volume (TV) was calculated by the formula [(length×width)/2] where length was the longest axis and width the measurement at right angles to length. […]

Question: Which “reduction of tumor volume” value does the source give for COc1cc2ncnc(Nc3cccc(Cl)c3)c2cc1OC [AG1478, 4-(3-Chloroanilino)-6,7-dimethoxyquinazoline, reference compound] here?
Answer: The value was “significant reduction of tumor volume”.

— patent US20110293511A1, “SPECIFIC BINDING PROTEINS AND USES THEREOF” (priority 2009, published 2011)
